Blank lines part the entries; values can stand above or below the molecule they belong to.
Test: solvent given as SMILES

fluorescence lifetime (in c1cc(-n2c3ccccc3c3ccccc32)cc(-n2c3ccccc3c3ccccc32)c1): 86 ns
Compound: N#Cc1cc(-n2c3ccccc3c3cccnc32)c(-n2c3ccccc3c3cccnc32)cc1C#N

fluorescence lifetime (in ClCCl): 10.1 ns
Compound: CCN(CC)c1ccc2cc(-c3ccc(-c4ccc(-c5cc6ccc(N(CC)CC)cc6oc5=O)cc4)cc3)c(=O)oc2c1

Compound: N#Cc1c(-n2c3ccc(I)cc3c3cc(I)ccc32)c(-n2c3ccc(I)cc3c3cc(I)ccc32)c(C#N)c(-n2c3ccc(I)cc3c3cc(I)ccc32)c1-n1c2ccc(I)cc2c2cc(I)ccc21
fluorescence lifetime (in Cc1ccccc1): 0.1 ns

fluorescence lifetime (in CC#N): 0.6 ns
fluorescence lifetime (in CO): 9.2 ns
Compound: O=C1c2ccccc2-c2c(-c3ccccc3)c(-c3ccccc3)c(-c3ccccc3)c3cccc1c23

fluorescence lifetime (in CCO): 2.3 ns
fluorescence lifetime (in ClCCl): 6.3 ns
Compound: O=Cc1cnc(-c2c3ccccc3cc3ccccc23)nc1

Compound: CCC1=C(C)C2=C(C)c3c(I)c(I)c(I)n3[B-](F)(F)[N+]2=C1C
fluorescence lifetime (in C1CCCCC1): 0.331 ns
fluorescence lifetime (in CC(C)=O): 0.206 ns
fluorescence lifetime (in CCO): 0.221 ns
fluorescence lifetime (in CCOC(C)=O): 0.241 ns
fluorescence lifetime (in CO): 0.214 ns
fluorescence lifetime (in OCC(F)(F)F): 0.21 ns

Compound: O=c1oc2ccccc2cc1-c1nc2ccccc2o1
fluorescence lifetime (in CO): 3.47 ns
fluorescence lifetime (in ClC(Cl)(Cl)Cl): 3.17 ns
fluorescence lifetime (in OCCO): 3.78 ns

fluorescence lifetime (in ClCCl): 1.27 ns
Compound: CCCCCCCCOc1cc(/C=C/c2cc(OCCCCCCCC)c(/C=C/c3cc(OCCCCCCCC)c(/C=C/c4ccncc4)cc3OCCCCCCCC)cc2OCCCCCCCC)c(OCCCCCCCC)cc1/C=C/c1ccncc1

fluorescence lifetime (in CC#N): 7.5 ns
Compound: COc1ccccc1-c1nc(-c2ccccc2)c2ccccn12

fluorescence lifetime (in ClCCl): 2.97 ns
Compound: CCN(CC)c1ccc2c(-c3ccccc3C(=O)O)c3c([o+]c2c1)/C(=C/c1nc(-c2ccccc2)n2ccccc12)CCC3

Compound: O=P1(c2ccccc2)c2cc(N3c4ccccc4Sc4ccccc43)ccc2-c2ccc(N3c4ccccc4Sc4ccccc43)cc21
fluorescence lifetime (in c1ccc2c(c1)c1ccccc1n2-c1ccc(-c2ccc(-n3c4ccccc4c4ccccc43)cc2)cc1): 46.1 ns

fluorescence lifetime (in ClCCl): 0.423 ns
Compound: FC(F)(F)c1ccc(/C2=C3N=C(C(c4ccccc4)=C/3c3ccccc3)/C(c3ccc(C(F)(F)F)cc3)=c3\[nH]/c(c(-c4ccccc4)c3-c3ccccc3)=C(/c3ccc(C(F)(F)F)cc3)C3=N/C(=C(/c4ccc(C(F)(F)F)cc4)c4[nH]c2c(-c2ccccc2)c4-c2ccccc2)C(c2ccccc2)=C3c2ccccc2)cc1

fluorescence lifetime (in ClCCl): 6.16 ns
Compound: CCCCCCCCCCCCN1C(=O)c2c(c3ccc4cc(-c5ccccc5)c(OC)cc4c3c3c2ccc2cc(-c4ccccc4)c(OC)cc23)C1=O

fluorescence lifetime (in CC#N): 1.96 ns
fluorescence lifetime (in CCCCCC): 2.24 ns
fluorescence lifetime (in CO): 1.86 ns
fluorescence lifetime (in ClC(Cl)Cl): 2.19 ns
Compound: c1ccc2c(-c3cc(-c4nccs4)nc(-c4nccs4)c3)cccc2c1

Compound: C[Si](C)(C)C#Cc1cc2ccc3cc(C#C[Si](C)(C)C)cc4ccc(c1)c2c34
fluorescence lifetime (in Cc1ccccc1): 99 ns

fluorescence lifetime (in CS(C)=O): 5.5 ns
Compound: CCCCCCCCCCCCOc1cc2cc(N(C)C)ccc2cc1C#N

fluorescence lifetime (in C1CCOC1): 2.32 ns
fluorescence lifetime (in C1COCCO1): 2.29 ns
fluorescence lifetime (in CC#N): 2.29 ns
fluorescence lifetime (in CC(C)O): 2 ns
fluorescence lifetime (in CCO): 1.88 ns
fluorescence lifetime (in CCOC(C)=O): 2.34 ns
fluorescence lifetime (in CN(C)C=O): 2.35 ns
fluorescence lifetime (in CO): 1.68 ns
fluorescence lifetime (in CS(C)=O): 2.49 ns
fluorescence lifetime (in O): 3.2 ns
Compound: NS(=O)(=O)c1ccc(N2N=C(c3ccc(O)cc3)CC2c2ccc(Cl)cc2)cc1 (configuration not stated)

fluorescence lifetime (in ClC(Cl)Cl): 3.8 ns
Compound: CCCCN1C(=O)c2ccc3c4ccc5c6c(ccc(c7ccc(c2c37)C1=O)c64)C(=O)N(CCCC)C5=O

fluorescence lifetime (in CCCCCC): 13.3 ns
fluorescence lifetime (in ClCCl): 18.3 ns
Compound: CC(C)[Si](C#Cc1c2ccccc2c(C#C[Si](C(C)C)(C(C)C)C(C)C)c2nc3cc4c(cc3nc12)C1c2ccccc2C4c2ccccc21)(C(C)C)C(C)C

fluorescence lifetime (in CCO): 6.1 ns
fluorescence lifetime (in ClCCl): 6.5 ns
Compound: COCc1ncc(-c2c3ccccc3c(-c3cnc(COC)nc3)c3ccccc23)cn1

fluorescence lifetime (in ClCCl): 1.34 ns
Compound: COC(=O)c1ccc(C2=C(/C=C/c3ccc(OC)cc3)O[B-](F)(F)[O+]=C2/C=C/c2ccc(OC)cc2)cc1

Compound: c1ccc(-c2nc(-c3ccccc3)nc(-c3ccc(-n4c5ccc(-n6c7ccccc7c7ccccc76)cc5c5cc(-n6c7ccccc7c7ccccc76)ccc54)cc3)n2)cc1
fluorescence lifetime (in Cc1ccccc1): 6 ns

Compound: O=C1c2ccccc2C(=O)C1C1C(=O)c2c3ccccc3cc3cc4ccccc4c1c23 (configuration not stated)
fluorescence lifetime (in C1CCOC1): 13.5 ns
fluorescence lifetime (in CC#N): 8.4 ns
fluorescence lifetime (in CCCCCC): 12.9 ns
fluorescence lifetime (in Cc1ccccc1): 14.1 ns
fluorescence lifetime (in ClCCl): 11 ns

Compound: CCCN1/C(=C\c2c(-c3ccc(N(C)C)cc3)c(=O)c2=O)C=Cc2ccccc21
fluorescence lifetime (in C1CCCCC1): 1.01 ns
fluorescence lifetime (in Cc1ccccc1): 2.46 ns
fluorescence lifetime (in ClCCl): 0.09 ns

fluorescence lifetime (in CO): 17.3 ns
Compound: O=C(O)CCCCCn1c2ccc(Br)cc2c(=O)c2cc3c(cc21)c(=O)c1cc(Br)ccc1n3CCCCCC(=O)O

Compound: CCCCN1C(=O)c2cc(Oc3ccc(C(C)(C)C)cc3)c3c4c(Oc5ccc(C(C)(C)C)cc5)cc5c(=O)[nH]/c(=C\c6ccccn6)c6cc(Oc7ccc(C(C)(C)C)cc7)c(c7c(Oc8ccc(C(C)(C)C)cc8)cc(c2c37)C1=O)c4c56
fluorescence lifetime (in C1CCOC1): 3.33 ns
fluorescence lifetime (in Cc1ccccc1): 3.57 ns
fluorescence lifetime (in ClCCl): 4.05 ns

fluorescence lifetime (in C1CCCCC1): 4 ns
fluorescence lifetime (in CC#N): 5.4 ns
fluorescence lifetime (in CO): 3.1 ns
fluorescence lifetime (in O): 4.4 ns
Compound: Nc1ccc2cn[nH]c2c1

fluorescence lifetime (in CCCCCC): 60.9 ns
fluorescence lifetime (in CO): 78.6 ns
fluorescence lifetime (in ClCCl): 43.1 ns
Compound: CC(C)(C)c1ccc2ccc3c(C(C)(C)C)ccc4ccc1c2c43

fluorescence lifetime (in CN(C)C=O): 0.61 ns
fluorescence lifetime (in ClC(Cl)Cl): 0.58 ns
Compound: CCCCCCOc1ccc(N(c2ccc(OCCCCCC)cc2)c2ccc(-c3sc(-c4ccc(N(c5ccc(OCCCCCC)cc5)c5ccc(OCCCCCC)cc5)cc4)c4nc(-c5ccc(C(=O)OC)cc5)c(-c5ccc(C(=O)OC)cc5)nc34)cc2)cc1

fluorescence lifetime (in C1CCOC1): 5.3 ns
fluorescence lifetime (in C1COCCO1): 5.3 ns
fluorescence lifetime (in CC#N): 5.4 ns
fluorescence lifetime (in CC(C)O): 5.7 ns
fluorescence lifetime (in CCO): 5.7 ns
fluorescence lifetime (in CO): 5.8 ns
fluorescence lifetime (in CS(C)=O): 7.4 ns
fluorescence lifetime (in NC=O): 7.8 ns
fluorescence lifetime (in O): 9.1 ns
fluorescence lifetime (in OCC(F)(F)F): 6.3 ns
fluorescence lifetime (in [2H]O[2H]): 9.3 ns
Compound: N#Cc1cccc2[nH]ccc12

fluorescence lifetime (in C1CCOC1): 1.5 ns
Compound: CCC1(CC)c2cc(C#Cc3cccs3)ccc2-c2c1c1c(c3c2C(CC)(CC)c2cc(C#Cc4cccs4)ccc2-3)C(CC)(CC)c2cc(C#Cc3cccs3)ccc2-1

Compound: COc1ccc(-c2nc3ccccc3nc2/C=C/N2CCCC2)s1
fluorescence lifetime (in C1CCCCC1): 0.79 ns
fluorescence lifetime (in C1CCOC1): 2.79 ns
fluorescence lifetime (in CC#N): 5.78 ns
fluorescence lifetime (in CC(C)=O): 5.1 ns
fluorescence lifetime (in CCO): 0.67 ns
fluorescence lifetime (in CO): 0.22 ns
fluorescence lifetime (in CS(C)=O): 4.88 ns
fluorescence lifetime (in Cc1ccccc1): 1.25 ns
fluorescence lifetime (in ClCCl): 3.28 ns

fluorescence lifetime (in CCO): 6.7 ns
Compound: CCOc1ccc2c(-c3nc(-c4ccccc4)no3)cc(=O)oc2c1

Compound: COc1ccc(C2=C3C(C)=CC(C=Cc4ccc(C(=O)OC5C[C@H]6CCC5(C)C6(C)C)cc4)=[N+]3[B-](F)(F)n3c(C)cc(C)c32)cc1 (some centres not stated)
fluorescence lifetime (in Cc1ccccc1): 3.82 ns

fluorescence lifetime (in CC#N): 1.6 ns
Compound: COc1ccc(C2=[O+][B-](F)(F)OC(c3ccc4c(c3)Cc3ccccc3-4)=C2)cc1

Compound: c1ccc(-c2nc(-c3ccccc3)nc(-c3ccc(-n4c5ccccc5c5cc(-n6c7ccccc7c7ccccc76)ccc54)cc3)n2)cc1
fluorescence lifetime (in Cc1ccccc1): 6.5 ns

fluorescence lifetime (in ClCCl): 3.6 ns
Compound: CCOC(=O)/N=c1/oc2cc(N(CC)CC)ccc2cc1C#N

fluorescence lifetime (in ClCCl): 3 ns
Compound: [BH3-][P+]1(c2ccccc2)c2ccccc2-c2sc3ccccc3c21 (configuration not stated)

fluorescence lifetime (in CC1CCCCC1): 11 ns
Compound: c1cc(N2CCCC2)ccn1

fluorescence lifetime (in C1CCCCC1): 4.9 ns
fluorescence lifetime (in CCOC(C)=O): 4.9 ns
fluorescence lifetime (in CO): 5.1 ns
Compound: c1ccc2c(-n3c4ccccc4c4ccccc43)cccc2c1

Source: the Deep4Chem optical property database
